Values quoted from earlier work, collected in patent publication US4276288A, “Dehydrooligopeptides, their production and their medicinal use” (Troponwerke GmbH & Co., KG, priority 1976, dated 1981).
Read-outs that look alike come from different tables or passages of the source.

Tested on: tumour cells

Compound: O=P1(N(CCCl)CCCl)NCCCO1 (centres unmarked) [cyclophosphamide]
- tumour cells destroyed (LD10 dosage): 99.999%
- tumour cells destroyed (one eighth of the LD10 dose): 90%
